Measured values published in US20200109421A1, “METHODS FOR INTEGRATION OF TRANSGENE DNA” (Selexis S.A., priority 2018, published 2020).
“Also recorded” adds a separate entry of the source.

Legend:
SURE CHO-M cell line [1] = assay: Cell cycle analysis of CHO cells by propidium iodide DNA content flow cytometry; type: cell-based, Chinese hamster; conditions: overnight in medium; DMSO 1%, APH 1 μM, MTX 1 uM, NOCO 1.5 μM
Procedure: SURE CHO-M cell™ line (SELEXIS SA, Switzerland, see: U.S. Pat. Nos. 7,129,062, 8,252,917 and 9,879,297, and U.S. Patent Applications No. 20110061117 and 20120231449, the disclosures of which are incorporated herein by reference in their entirety) were cultivated overnight in asynchronous condition (FIG. 1A) or in presence of DMSO 1%, aphidicholin (APH) 1 μM, methotrexate (MTX) 1 uM or nocodazole (NOCO) 1.5 μM (FIG. 1B). Cells were then fixed in ethanol and labelled overnight at 4° C. with propidium iodide (PI; 50 μg/ml, Sigma) in presence of RNAse (0.5 μg/ml, Sigma). DNA content index histograms were acquired on Guava EasyCyte System® using INCYTE acquisition software. Each phase of cell cycle was defined according to the drug treatment as G1 arrest (DMSO); S phase (APH); G2 (NOCO). The % of G0/G1, % of S and % of G2/M arrested cells were then calculated (see Table FIG. 1B).
Cell cycle was analyzed by flow cytometry at release (18 h with drug) and at 1, 2, 4, 6 and 8 h after release. Released cells were then further cultivated according to the indicated time points. Asynchronous (control) cells were included as controls. DNA content index histograms were acquired on Guava EasyCyte System® (MILLIPORE) using INCYTE acquisition software.

SURE CHO-M cells [2] = assay: Cell synchronization combined with DNA repair pathway modulators: CSA of trastuzumab IgG-producing cells; type: cell-based, Chinese hamster; conditions: for proportion of high-expressing cells: immediately after transfection, in combination with S and G2 arrest
Procedure: Freshly transfected cells were incubated in presence of various NHEJ, HR, MMEJ or SSA modulators immediately after electroporation to identify the DNA repair pathway involved in transgene integration and depending on the targeted cell cycle phase.

SURE CHO-M cells [3] = assay: Cell synchronization with plasmid or CRISPR/Cas-mediated transgene integration: fed-batch PCD; design: species or system Chinese hamster; conditions: G1 synchronization, DMSO 1% overnight, plasmid-based and CRISPR/Cas9-mediated expression system
Procedure: Asynchronous and synchronized cells were transfected with IgG-trastuzumab expressing vectors and cultivated under antibiotic selection for 10 days.
Stable expressing pools were subcultivated in complete culture medium for 4 subsequent passages in spin tubes (5 ml wv) (FIG. 4B). Cell density (Cv·ml^−1) and IgG titer values (μg·ml^−1) were determined. […] Growth and performance of each stable established IgG-expressing pool was then evaluated in spin tube in a 9-day fedbatch process using Acto CHO A+B feed (GE Healthcare). Fed-batch cultures were initiated at cell concentrations of 0.3×10^6 cells/ml in 5 mL working volume run. (FIG. 4C). The specific IgG productivity was determined as the slope of IgG concentration versus the integral number of viable cells (IVCD) and expressed as pg per cell and per day (pcd). Histograms represented the fold change of productivity per cell per day (PCD) obtained for DMSO and 4° C. pre-treatment compared to their respective untreated-controls cells.

SURE CHO-M cells [4] = assay: Cell recovery during antibiotic selection after synchronization and DNA repair modulation; conditions: S- and G2-synchronized cells, with DNA repair pathways inhibition
Procedure: SURE CHO-M cells™ (SELEXIS SA, Switzerland) were synchronized overnight with DMSO 1%, aphidicolin (APH) 1 μM, methotrexate (MTX) 1 μM or nocodazole (NOCO) 1.5 μM. After 18 hrs of incubation, cells were centrifuged, rinse twice into PBS 1× and resuspended in complete culture medium. Asynchronous and synchronized cells were transfected with trastuzumab IgG-plasmid expressing vector. Freshly transfected cells were then immediately resuspended and incubated overnight in presence of NU7441, RI-1, RS-1 or Olaparib small molecules (drugs provided by TOCRIS, CALBIOCHEM or APEXBIO TECHNOLOGY) before to change medium and start antibiotic selection.
Cell recovery behavior during antibiotic selection was monitored for each transfection condition and recorded as + or − signs.

SURE CHO-M cell line [5] = assay: eGFP expression after transfection of synchronized CHO cells (cytometer imager); type: cell-based, Chinese hamster; conditions: day 2 and day 11 after transfection; synchronized prior to transfection vs non-synchronized cells
Procedure: (§1) Asynchronous and synchronized SURE CHO-M cell™ lines (SELEXIS SA, Switzerland) were transfected with eGFP- (FIG. 1E) or Trastuzumab IgG-expression SLX-vectors (FIG. 1F and FIG. 1G) immediately after drugs release. Transfection was done by microporation (NEON TRANSFECTION SYSTEM, INVITROGEN), generating a heterogeneous pool of transfected cells. 24 h after transfection, 5 ug/ml puromycin selection agent (GIBCO) was added to the BalanCD medium (IRVINE) supplemented with 6 mM L-Glutamine (HYCLONE). Expression pools performances were then evaluated for GFP or IgG at different time points after transfection. The percentage and GFP fluorescence mean intensity (FMI) level were evaluated on cytometer imager at d2 and d11 post-transfection (CELIGO S; NEXCELOM). Results were represented as fold change of control cells (FIG. 1E; histograms).

SURE CHO-M cell line [6] = assay: Cell Secretion Assay (CSA) of Trastuzumab IgG-producing cells after synchronization; type: cell-based, Chinese hamster; conditions: 2 days post-transfection; vs asynchronized cells
Procedure: as §1
The percentage and secretion mean intensity (SMI) of IgG-producing cells were determined at d2 (FIG. 1F) and d10 (FIG. 1G) post-transfection using Cell Secretion Assay methods (CSA).

SURE CHO-M cells [7] = assay: IgG transfection in presence of Sbf1 restriction enzyme and NU7441: CSA of stable cells; type: cell-based, Chinese hamster; conditions: Sbf1 present
Procedure: Asynchronized (AS) or G1-synchronized (G1) SURE CHO-M cells' (SELEXIS SA, Switzerland) were transfected with trastuzumab IgG-expressing vector in presence of Sbf1 restriction enzyme. Transfected cells were incubated overnight in presence of the NHEJ inhibitor—NU7441 ([…])—before change of medium and start antibiotic selection. The histograms show cell secretion assay (CSA) as percentage (white bar) and secretion mean intensity (SMI) (grey bar) of total producing cells (FIG. 6A) or of the high-, medium- and low-producing subpopulations (FIG. 6B) performed on stable trastuzumab-expressing cells.

SURE CHO-M cells [8] = assay: Nu7441 treatment before transfection: productivity in 9-day fedbatch (ELISA titer, PCD); type: cell-based, Chinese hamster; conditions: 0.4 μM just before transfection
Procedure: SURE CHO-M cells™ (SELEXIS SA, Switzerland) were treated with 0.4 μM of DNA-PK inhibitor Nu7441 (TOCRIS) just before transfection of 3 μg of the antibody DNA fragment, respectively Trastuzumab (Tras) or Adalimumab (ADA). Transfection was done by microporation (Neon Transfection system, Invitrogen). 24 h after transfection, 5 μg/ml puromycin selection agent (Gibco) was added.
Growth and performance of the 6 top clones of each enzymatic condition were evaluated in spin tube in a 9-day fedbatch process using Acto CHO A+B feed (GE Healthcare). Fed-batch cultures were initiated at cell concentrations of 0.3×10^6 cells/ml in 5 mL working volume run. Cell density and cell viability along the process were evaluated by using a Guava System (Millipore) and supernatant sample was collected. Antibody product titer was evaluated by ELISA capture assay against the collected supernatant, at day 9 of the fedbatch process. Productivity per cell per day (PCD) was calculated as function of titer and viable cell density during the fedbatch process.

[9] = after 10 days of antibiotic selection, NU7441 0.4 mM overnight, AS_NU and G1_NU vs AS and G1

With `C[C@@]1(CO)[C@H](O)CC[C@@]2(C)[C@H]1CC[C@H]1C[C@@H]3C[C@@]12CC[C@]3(O)CO` [APH, aphidicolin] the “cell cycle phase at which cells are arrested” value (“cell cycle phase” for short) (SURE CHO-M cell line [1]) was “S phase”.

For `C[S+](C)[O-]` [DMSO, dimethyl sulfoxide], the “high-producing subpopulation (% HP) of stable IgG-producing cells” value (SURE CHO-M cells [2]; after 10 days of antibiotic selection, G1-synchronized, with or without DNA repair modulators, vs asynchronous controls) was “increase”, the “cell cycle phase” value (SURE CHO-M cell line [1]) was “G1 arrest; also recorded: G1 phase” and the “productivity (fold change of PCD vs untreated control cells)” value (SURE CHO-M cells [3]) was “significant increase”.

For `CN(Cc1cnc2nc(N)nc(N)c2n1)c1ccc(C(=O)N[C@@H](CCC(=O)O)C(=O)O)cc1` [MTX, methotrexate], the “cytotoxic effect (cells failed to pass the antibiotic selection)” value (SURE CHO-M cells [4]) was “lethal cytotoxic effect”, the “mean intensity of GFP-expressing cells” value (SURE CHO-M cell line [5]) was “higher” and the “percentage of GFP-expressing cells” value (SURE CHO-M cell line [5]) was “higher”. For the same compound, the “cell cycle phase” value (SURE CHO-M cell line [1]) was “G1/S phase”, the “% of Trastuzumab-expressing cells” value (SURE CHO-M cell line [6]) was “higher” and the “mean intensity of Trastuzumab-expressing cells” value (SURE CHO-M cell line [6]) was “higher”.

`COC(=O)Nc1nc2ccc(C(=O)c3cccs3)cc2[nH]1` [NOCO, nocodazole] was tested, and the “cytotoxic effect (cells failed to pass the antibiotic selection)” value (SURE CHO-M cells [4]) was “lethal cytotoxic effect”, the “mean intensity of GFP-expressing cells” value (SURE CHO-M cell line [5]) was “higher” and the “percentage of GFP-expressing cells” value (SURE CHO-M cell line [5]) was “higher”. For the same compound, the “% of Trastuzumab-expressing cells” value (SURE CHO-M cell line [6]) was “higher” and the “mean intensity of Trastuzumab-expressing cells” value (SURE CHO-M cell line [6]) was “higher”.

In the case of `O=c1cc(N2CCOCC2)oc2c(-c3cccc4c3sc3ccccc34)cccc12` [Nu7441], the “high- and medium-producing cells subpopulations” value (SURE CHO-M cells [7]; G1 phase synchronized and Nu7441 treated, after 10 days selection) is reported as “significant increase”, the “mean intensity of IgG-expressing cells” value (SURE CHO-M cells [7]; [9]) is reported as “higher” and the “percentage of IgG-expressing cells” value (SURE CHO-M cells [7]; [9]) is reported as “higher”. The “proportion of IgG-producing cells” value (SURE CHO-M cells [7]; combination with G1 phase synchronization (G1_NU compared to AS)) was “best”, the “proportion of high-expressing cells” value (SURE CHO-M cells [2]) was “higher” and the “productivity per cell per day (PCD)” value (SURE CHO-M cells [8]; Trastuzumab) was “clear increased”. The “productivity per cell per day (PCD)” value (SURE CHO-M cells [8]; adalimumab) was “less evident” and the “productivity (antibody product titer)” value (SURE CHO-M cells [8]; both antibody molecules (Trastuzumab, Adalimumab)) was “increase”.

`O=C(c1cc(Cc2n[nH]c(=O)c3ccccc23)ccc1F)N1CCN(C(=O)C2CC2)CC1` [Olaparib] was tested, and the “proportion of high-expressing cells” value (SURE CHO-M cells [2]) was “higher”.

`O=C1C(Cl)=C(N2CCOCC2)C(=O)N1c1ccc(Cl)c(Cl)c1` [RI-1] was tested, and the “proportion of high-expressing cells” value (SURE CHO-M cells [2]) was “higher”.
